US20220378711A1, “PH-Responsive Nanoparticles for Treating Cancer” (United States Government as represented by the Department …, priority 2021, published 2022)
Read-outs that look alike come from different tables or passages of the source.

Key:
[1] = LC-MS drug concentration in tumor xenograft tissue; type: in vivo, nude mice; details: nude, mouse, intraperitoneal, injected ip as drug-pH NPs, 75 mg/kg SCH772984, 40 mg/kg GEM, read-out: drug concentration in tumor tissues
Procedure: LC-MS analysis of drugs was performed on a Q-TOF Synapt G2S mass spectrometer (Waters, Milford, Mass.) coupled with an Acquity UPLC system (Waters). Drugs were resolved on an ACUITY UPLC HSS T3 column ([…], 100 Å pore diameter, 2.1 mm×150 mm, Waters) with an acetonitrile/water gradient containing 0.1% formic acid. GEM was detected as [M+H]+, and SCH 772984 was detected as [M+2H]2+ in a positive ESI mode.
Next, in vivo studies to obtain information on the systemic stability and tumor enrichment capacity of pH NPs were performed. The fate of drug-encapsulated nanoparticles in the MIA PaCa-2-pancreatic tumor xenograft model in immune-compromised nude mice was studied. Upon intraperitoneal (ip) administration of free or drug-pH NPs [75 mg/kg for SCH772984 and 40 mg/kg for GEM; human equivalent dose (HED)] for 48 h in tumor-bearing mice (N=3), the drug concentrations in tumor tissues was measured using LC-MS.

MIA PaCa-2 cells [2] = experiment: MTT cell viability and CompuSyn synergy assay; type: cell-based; details: MIA PaCa-2, 72 h MTT
Procedure: (§1) PDAC cells (5000 cells/well) were seeded in 96-well plates and, 24 h later, cells were treated with different concentrations of nanocapsulated SCH 772984, DEM, or their combinations. Control cells were treated with an equivalent level of DMSO. Drug concentrations were optimized for the cell-based assay of the individual drug. At 72 h after treatment, the cell viability assay was performed by adding 10 μL of the 3-(4,5-dimethylthiazol-2-yl)-2,5-diphenyltetrazolium bromide (MTT) reagent to each well, and the plates were incubated for 3 h at 37° C. The MTT reagent was removed, DMSO (100 μL/well) was added to solubilize the crystals, and absorbance was measured at 570 nm. Synergy analysis was performed using CompuSyn software.
(§2) The data was fitted in CompuSyn. These two cell lines were selected because MIA PaCa-2 cells are responsive to ERKi and GEM compared to Panc-1. […] However, consistent with previous studies, the Panc-1 cells were more resistant to these drugs compared to MIA PaCa-2 cells.

Panc-1 cells = experiment: MTT cell viability and CompuSyn synergy assay; type: cell-based; details: Panc-1, 72 h MTT
Procedure: as §1, §2

MIA PaCa-2 cells [3] = experiment: Clonogenic survival assay; type: cell-based
Procedure: PDAC cells were seeded at a density of 400 cells/well in 6-well plates. The following day, cells were treated with nanoencapsulated ERKi at a concentration of 0.01 nM, carrier-encapsulated GEM at a concentration of 0.1 nM, and a combination of 0.01 nM encapsulated ERKi, and 0.1 nM encapsulated GEM for 12 days. After the incubation time, the medium was removed, and the cells were fixed with 3:1 methanol/glacial acetic acid for 15 min at room temperature. After the fixing reagent was removed, the cells were stained with 0.5% crystal violet solution (in methanol) for 15 min. The plates were washed thoroughly with tap water to remove residual crystal violet. The plates were dried overnight, and the colonies were counted using Colony Doc-It imaging station using Colony Doc-It imaging software.
To examine the link between ERK and GEM resistance in PDAC cells, a Clonogenic assay was performed for anchorage-dependent growth in MIA PaCa-2 and Panc-1 cell lines in the presence or absence of free or encapsulated ERKi (10 nM) or GEM (100 nM) alone or a combination of these two drugs for 12 days. The half-effective doses of encapsulated ERKi or encapsulated GEM was purposely selected from the preceding studies shown in FIG. 6 and FIG. 7 because these doses of free-drugs have minimal or no effect on PDAC cell viability (FIG. 6) and ERK phosphorylation (FIG. 7).

[4] = cited from earlier work
[5] = system: ERK phosphorylation (p44/p42 MAPK/ERK1/2); experiment: Western blot of ERK activity in PDAC cells; type: cell-based
Procedure: Western blot analysis was the same as described in Mol. Cancer Ther. 2019, 18, 788-800. Briefly, cells were seeded at a cell density of 500,000 cells/well in 6-well plates. About 60% of confluent cells were treated with nanoparticles alone (NPA), free ERKi (FEI), or encapsulated ERKi (EEI) for 3 h at 0.001, 0.01, 0.1, 1, and 10 nM concentrations of the drug. Cells were lysed in a lysis buffer (50 mmol/L Tris pH7.4, 150 mmol/L sodium chloride, 1% NP-40, 0.25% sodium deoxycholate, 1 mmol/L EDTA) containing PMSF and Protease/Phosphatase Inhibitor Cocktail (Cell Signaling Technologies). Proteins were quantified with the Pierce BCA protein assay kits (Thermo Fisher Scientific). Under reducing conditions, a […] sample was loaded onto 10% SDS gels for the separation of proteins, and the resulting gel was transferred onto a […] nitrocellulose membrane. The blots were then immersed in a 5% blocking buffer made in Tris base and Tween-20 followed by incubation with antibodies against total-ERK and phospho-ERK primary antibodies (Cell Signaling Technologies; diluted in blocking buffer at 1:1000) overnight. The secondary antibody was incubated for 1 h at room temperature. The signal from the blots was detected using the Super Signal West Femto Maximum Sensitivity substrate (Thermo Fisher).
To determine the functional efficacy of ERKi-pH NPs, the question of whether encapsulated ERKi SCH 772984 can suppress the ERK activity by suppressing ERK phosphorylation (p44/p42 MAPK/ERK1/2) in PDAC cells was investigated. To do so, MIA PaCa-2 cells were exposed to nanoparticles free of SCH 772984 or encapsulated with SCH 772984 with different doses (0.1-100 nM) for 3 hours. Following treatment, total, phospho-ERK, RSK, and GAPDH were determined using Western blot analysis in the cell extracts.

[6] = cited from earlier work; remark: listed apart in the source

Compound | concentration at 48 h [1] [ng/g] | IC50 of free drug compared with encapsulated drug (MIA PaCa-2 cells [2]) | IC50 of free drug compared with encapsulated drug (Panc-1 cells) | survival and colony-forming ability (MIA PaCa-2 cells [3]; MIA PaCa-2, 12 days, ERKi 10 nM, GEM 100 nM) | pKa [4] | change of pERK level, less than 10 nM encapsulated ERKi ([5]; 10 nM, MIA PaCa-2) [fold] | total ERK and total RSK expression ([5]; MIA PaCa-2, 3 hours) | p-ERK and p-RSK levels ([5]; MIA PaCa-2, 3 hours, dose-dependent) | concentration at which inhibitory effect on p-ERK/p-RSK was first detected ([5]; MIA PaCa-2, 3 hours, doses 0.1-100 nM) [nM] | solubility [6] | solubility ([6]; listed as unencapsulated ERKi) | effect of ERKi on GEM's effect on PDAC cells (MIA PaCa-2 cells [3]; ERKi at minimum inhibitory concentration (0.01 nM))
Nc1ccn([C@@H]2O[C@H](CO)[C@@H](O)C2(F)F)c(=O)n1 [GEM, gemcitabine] | ~4 | markedly higher | markedly higher | decrease the colony-forming ability of these cells significantly |  |  |  |  |  |  |  | 
CCCCNCCNCCCC [N,N′-dibutylethylenediamine] |  |  |  |  | 4.0 |  |  |  |  |  |  | 
O=C(Nc1ccc2[nH]nc(-c3ccncc3)c2c1)[C@@H]1CCN(CC(=O)N2CCN(c3ccc(-c4ncccn4)cc3)CC2)C1 [SCH 772984] | ~2 | markedly higher | markedly higher |  |  | 2.4 | did not affect | markedly decreased | 100 | low water solubility | extremely poor solubility | significantly enhances
